Test system: mouse carcinoma of the colon COLON-26
Assay: Evaluation in vivo using mouse carcinoma of the colon COLON-26 (Example 1)
Settings: day 21, CDFI mice
Procedure: CDFI mice (female: 4 weeks old) were bought, and colon-26 subcultured in vivo in the subcutaneous tissue was taken out. The colon-26 was minced in a Petridish, and transplanted into the sulcutaneous tissue of CDFI mice in an amount of 10 mg/mouse by a trucker. The transplanted day was assigned day 0, and the size of the tumor and body weight were measured on day 7 and divided into groups by n=4. The size of tumor was calculated as tumor weight by the following formula. (Tumor Weight (mg) = Tumor Volume (mm)^3 =1/2 × Major Axis (mm) × Minor Axis (mm))^2 [formula]
Administration was carried out from day 7 according to the following schedule. Dose was 0.2 mL/mouse, and injected into abdominal cavity. Acetylgliotoxin was dissolved in dimethyl sulfoxide (DMSO) in a concentration of 100 mg/mL, and adjusted to an object concentration (0.5 mg/kg, 1 mg/kg, 10 mg/kg, 20 mg/kg) by 5% Tween 80 (saline solution). In the evaluation of […], 1 mg/kg, injection was carried out every day for 5 days, in the case of 10 mg/kg, injected twice on day 7 and day 8, and in the case of 20 mg/kg, injected once on day 7.
The anticancer effect was evaluated by the inhibition rate of tumor cell multiplication (IR calculated from the weight of tumor. IR was obtained by the following formula. IR (%) = (1-Tumor Weight of Administration Group/Tumor Weight of Control Group) [formula]

CC(=O)OC1C=CC=C2CC34SSC(CO)(C(=O)N3C21)N(C)C4=O (stereo not shown) [acetylgliotoxin]
I. R. (%) (0.5 mg/kg×5 i.p.(d7-11)): 28%
I. R. (%) (1 mg/kg×5 i.p.(d7-11)): 19%
I. R. (%) (10 mg/kg×2 i.p.(d7, 8)): 38%
I. R. (%) (20 mg/kg×1 i.p.(d7)): 34%
